Experiments:
Assay in all cases: relative viability (nuclei count vs DMSO), 5 days (fraction); higher = more cells survive
[1] = system: 201T
In short: (§1)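 After 5 days of treatment, lung cancer cells in 1536-well plates were fixed and stained in a single step (final 0.05% Triton X-100, 1% formaldehyde, 1 ug/ml Hoechst) and their nuclei counted on 4× images. Treatment had been applied by pin tool the day after seeding as one drug alone or as a fixed anchor-drug dose with five library-drug doses (not always all listed) in √10 steps. Relative viability is the nuclei count of treated wells divided by that of vehicle wells, and values are medians of duplicate plates.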

[2] = system: BEN
In short: as §1

[3] = system: CAL-12T
In short: as §1

[4] = system: HCC-78
In short: as §1

[5] = system: HOP-62
In short: as §1

[6] = system: LCLC-97TM1
In short: as §1

[7] = system: LOU-NH91
In short: as §1

[8] = system: NCI-H1355
In short: as §1

[9] = system: NCI-H1395
In short: as §1

[10] = system: NCI-H1563
In short: as §1

[11] = system: NCI-H1651
In short: as §1

[12] = system: NCI-H1793
In short: as §1

[13] = system: NCI-H1915
In short: as §1

[14] = system: NCI-H1944
In short: as §1

[15] = system: NCI-H2126
In short: as §1

[16] = system: NCI-H2347
In short: as §1

[17] = system: NCI-H3122
In short: as §1

[18] = system: NCI-H322M
In short: as §1

[19] = system: NCI-H441
In short: as §1

[20] = system: NCI-H650
In short: as §1

[21] = system: NCI-H838
In short: as §1

[22] = system: SK-LU-1
In short: as §1

[23] = system: SW 1573
In short: as §1

## CN1CCN(CCOc2cc(OC3CCOCC3)c3c(Nc4c(Cl)ccc5c4OCO5)ncnc3c2)CC1 [Saracatinib] + N=C(N)NC(=N)NCCc1ccccc1 [Phenformin] (partner 250 µM)
[1]; first compound 0.02 µM
  relative viability: 0.391
[1]; first compound 0.2 µM
  relative viability: 0.415
[1]; first compound 0.6325 µM
  relative viability: 0.422
[1]; first compound 2 µM
  relative viability: 0.369
[2]; first compound 0.02 µM
  relative viability: 0.292
[2]; first compound 0.6325 µM
  relative viability: 0.253
[2]; first compound 2 µM
  relative viability: 0.209
[3]; first compound 0.02 µM
  relative viability: 0.608
[3]; first compound 0.2 µM
  relative viability: 0.639
[3]; first compound 0.6325 µM
  relative viability: 0.595
[3]; first compound 2 µM
  relative viability: 0.506
[4]; first compound 0.02 µM
  relative viability: 0.704
[4]; first compound 0.6325 µM
  relative viability: 0.772
[4]; first compound 2 µM
  relative viability: 0.554
[5]; first compound 0.02 µM
  relative viability: 0.661
[5]; first compound 0.2 µM
  relative viability: 0.629
[5]; first compound 0.6325 µM
  relative viability: 0.593
[5]; first compound 2 µM
  relative viability: 0.623
[6]; first compound 0.02 µM
  relative viability: 0.461
[6]; first compound 0.2 µM
  relative viability: 0.399
[6]; first compound 0.6325 µM
  relative viability: 0.469
[6]; first compound 2 µM
  relative viability: 0.413
[7]; first compound 0.02 µM
  relative viability: 0.648
[7]; first compound 0.2 µM
  relative viability: 0.47
[7]; first compound 0.6325 µM
  relative viability: 0.553
[7]; first compound 2 µM
  relative viability: 0.403
[8]; first compound 0.02 µM
  relative viability: 0.453
[8]; first compound 0.2 µM
  relative viability: 0.397
[8]; first compound 0.6325 µM
  relative viability: 0.453
[8]; first compound 2 µM
  relative viability: 0.407
[9]; first compound 0.02 µM
  relative viability: 0.434
[9]; first compound 0.2 µM
  relative viability: 0.455
[9]; first compound 0.6325 µM
  relative viability: 0.474
[9]; first compound 2 µM
  relative viability: 0.348
[10]; first compound 0.02 µM
  relative viability: 0.615
[10]; first compound 0.2 µM
  relative viability: 0.63
[10]; first compound 0.6325 µM
  relative viability: 0.603
[10]; first compound 2 µM
  relative viability: 0.572
[11]; first compound 0.02 µM
  relative viability: 0.414
[11]; first compound 0.2 µM
  relative viability: 0.258
[11]; first compound 0.6325 µM
  relative viability: 0.388
[11]; first compound 2 µM
  relative viability: 0.3
[12]; first compound 0.02 µM
  relative viability: 0.439
[12]; first compound 0.6325 µM
  relative viability: 0.308
[12]; first compound 2 µM
  relative viability: 0.263
[13]; first compound 0.02 µM
  relative viability: 0.374
[13]; first compound 0.2 µM
  relative viability: 0.333
[13]; first compound 0.6325 µM
  relative viability: 0.364
[13]; first compound 2 µM
  relative viability: 0.333
[14]; first compound 0.02 µM
  relative viability: 0.227
[14]; first compound 0.6325 µM
  relative viability: 0.161
[14]; first compound 2 µM
  relative viability: 0.141
[15]; first compound 0.02 µM
  relative viability: 0.537
[15]; first compound 0.2 µM
  relative viability: 0.522
[15]; first compound 0.6325 µM
  relative viability: 0.524
[15]; first compound 2 µM
  relative viability: 0.473
[16]; first compound 0.02 µM
  relative viability: 0.38
[16]; first compound 0.2 µM
  relative viability: 0.26
[16]; first compound 0.6325 µM
  relative viability: 0.377
[16]; first compound 2 µM
  relative viability: 0.342
[17]; first compound 0.02 µM
  relative viability: 0.385
[17]; first compound 0.2 µM
  relative viability: 0.248
[17]; first compound 0.6325 µM
  relative viability: 0.301
[17]; first compound 2 µM
  relative viability: 0.285
[18]; first compound 0.02 µM
  relative viability: 0.708
[18]; first compound 0.2 µM
  relative viability: 0.694
[18]; first compound 0.6325 µM
  relative viability: 0.55
[18]; first compound 2 µM
  relative viability: 0.334
[19]; first compound 0.02 µM
  relative viability: 0.768
[19]; first compound 0.2 µM
  relative viability: 0.733
[19]; first compound 0.6325 µM
  relative viability: 1.17
[19]; first compound 2 µM
  relative viability: 0.819
[20]; first compound 0.02 µM
  relative viability: 0.465
[20]; first compound 0.2 µM
  relative viability: 0.429
[20]; first compound 0.6325 µM
  relative viability: 0.495
[20]; first compound 2 µM
  relative viability: 0.461
[21]; first compound 0.02 µM
  relative viability: 0.645
[21]; first compound 0.2 µM
  relative viability: 0.486
[21]; first compound 0.6325 µM
  relative viability: 0.49
[21]; first compound 2 µM
  relative viability: 0.379
[22]; first compound 0.02 µM
  relative viability: 0.474
[22]; first compound 0.2 µM
  relative viability: 0.351
[22]; first compound 0.6325 µM
  relative viability: 0.25
[22]; first compound 2 µM
  relative viability: 0.209
[23]; first compound 0.02 µM
  relative viability: 0.537
[23]; first compound 0.2 µM
  relative viability: 0.382
[23]; first compound 0.6325 µM
  relative viability: 0.313
[23]; first compound 2 µM
  relative viability: 0.313

## Cc1cn(-c2cc(NC(=O)c3ccc(C)c(Nc4nccc(-c5cccnc5)n4)c3)cc(C(F)(F)F)c2)cn1 [Nilotinib] + Cc1nc(NC(=O)N2CCC[C@H]2C(N)=O)sc1-c1ccnc(C(C)(C)C(F)(F)F)c1 [Alpelisib] (partner 2 µM)
[1]; first compound 0.003162 µM
  relative viability: 1.11
[1]; first compound 0.01 µM
  relative viability: 1.09
[1]; first compound 0.1 µM
  relative viability: 1.07
[3]; first compound 0.003162 µM
  relative viability: 1.67
[3]; first compound 0.01 µM
  relative viability: 1.92
[3]; first compound 0.03162 µM
  relative viability: 0.653
[3]; first compound 0.1 µM
  relative viability: 1.22
[4]; first compound 0.001 µM
  relative viability: 0.347
[4]; first compound 0.003162 µM
  relative viability: 0.381
[4]; first compound 0.01 µM
  relative viability: 0.444
[4]; first compound 0.03162 µM
  relative viability: 0.34
[4]; first compound 0.1 µM
  relative viability: 0.382
[5]; first compound 0.001 µM
  relative viability: 0.889
[5]; first compound 0.003162 µM
  relative viability: 0.843
[5]; first compound 0.01 µM
  relative viability: 1.13
[5]; first compound 0.03162 µM
  relative viability: 0.742
[5]; first compound 0.1 µM
  relative viability: 0.7
[6]; first compound 0.003162 µM
  relative viability: 0.311
[6]; first compound 0.01 µM
  relative viability: 0.279
[6]; first compound 0.03162 µM
  relative viability: 0.22
[6]; first compound 0.1 µM
  relative viability: 0.275
[7]; first compound 0.001 µM
  relative viability: 0.741
[7]; first compound 0.003162 µM
  relative viability: 0.7
[7]; first compound 0.01 µM
  relative viability: 0.802
[7]; first compound 0.03162 µM
  relative viability: 0.707
[7]; first compound 0.1 µM
  relative viability: 0.676
[8]; first compound 0.001 µM
  relative viability: 0.764
[8]; first compound 0.003162 µM
  relative viability: 1.08
[8]; first compound 0.01 µM
  relative viability: 0.974
[8]; first compound 0.03162 µM
  relative viability: 0.784
[8]; first compound 0.1 µM
  relative viability: 0.931
[9]; first compound 0.001 µM
  relative viability: 0.877
[9]; first compound 0.003162 µM
  relative viability: 0.929
[9]; first compound 0.03162 µM
  relative viability: 0.977
[9]; first compound 0.1 µM
  relative viability: 0.99
[10]; first compound 0.001 µM
  relative viability: 0.738
[10]; first compound 0.003162 µM
  relative viability: 0.905
[10]; first compound 0.01 µM
  relative viability: 0.839
[10]; first compound 0.03162 µM
  relative viability: 0.849
[10]; first compound 0.1 µM
  relative viability: 0.79
[11]; first compound 0.001 µM
  relative viability: 0.915
[11]; first compound 0.003162 µM
  relative viability: 1.15
[11]; first compound 0.01 µM
  relative viability: 1.41
[11]; first compound 0.03162 µM
  relative viability: 0.837
[11]; first compound 0.1 µM
  relative viability: 0.978
[12]; first compound 0.003162 µM
  relative viability: 0.778
[12]; first compound 0.01 µM
  relative viability: 0.861
[12]; first compound 0.03162 µM
  relative viability: 0.625
[12]; first compound 0.1 µM
  relative viability: 0.454
[13]; first compound 0.001 µM
  relative viability: 0.981
[13]; first compound 0.003162 µM
  relative viability: 1.1
[13]; first compound 0.01 µM
  relative viability: 1.14
[13]; first compound 0.03162 µM
  relative viability: 1.01
[13]; first compound 0.1 µM
  relative viability: 0.981
[14]; first compound 0.001 µM
  relative viability: 0.867
[14]; first compound 0.003162 µM
  relative viability: 0.876
[14]; first compound 0.01 µM
  relative viability: 1.02
[14]; first compound 0.03162 µM
  relative viability: 0.837
[14]; first compound 0.1 µM
  relative viability: 0.767
[15]; first compound 0.001 µM
  relative viability: 0.732
[15]; first compound 0.003162 µM
  relative viability: 0.809
[15]; first compound 0.01 µM
  relative viability: 0.85
[15]; first compound 0.03162 µM
  relative viability: 0.829
[15]; first compound 0.1 µM
  relative viability: 0.575
[16]; first compound 0.001 µM
  relative viability: 1.01
[16]; first compound 0.003162 µM
  relative viability: 1.12
[16]; first compound 0.01 µM
  relative viability: 1.03
[16]; first compound 0.03162 µM
  relative viability: 0.981
[16]; first compound 0.1 µM
  relative viability: 1.01
[17]; first compound 0.001 µM
  relative viability: 0.941
[17]; first compound 0.003162 µM
  relative viability: 0.925
[17]; first compound 0.01 µM
  relative viability: 0.87
[17]; first compound 0.03162 µM
  relative viability: 0.683
[17]; first compound 0.1 µM
  relative viability: 0.587
[18]; first compound 0.001 µM
  relative viability: 0.882
[18]; first compound 0.003162 µM
  relative viability: 0.817
[18]; first compound 0.03162 µM
  relative viability: 0.72
[18]; first compound 0.1 µM
  relative viability: 0.866
[19]; first compound 0.001 µM
  relative viability: 0.761
[19]; first compound 0.003162 µM
  relative viability: 1.14
[19]; first compound 0.01 µM
  relative viability: 0.765
[19]; first compound 0.1 µM
  relative viability: 0.951
[20]; first compound 0.001 µM
  relative viability: 1
[20]; first compound 0.003162 µM
  relative viability: 1.09
[20]; first compound 0.01 µM
  relative viability: 1.4
[20]; first compound 0.03162 µM
  relative viability: 0.989
[20]; first compound 0.1 µM
  relative viability: 1.23
[21]; first compound 0.001 µM
  relative viability: 1.06
[21]; first compound 0.003162 µM
  relative viability: 1.31
[21]; first compound 0.01 µM
  relative viability: 1.26
[21]; first compound 0.1 µM
  relative viability: 1.09
[22]; first compound 0.001 µM
  relative viability: 0.929
[22]; first compound 0.003162 µM
  relative viability: 1.03
[22]; first compound 0.01 µM
  relative viability: 1.06
[22]; first compound 0.03162 µM
  relative viability: 0.632
[22]; first compound 0.1 µM
  relative viability: 0.719
[23]; first compound 0.001 µM
  relative viability: 0.867
[23]; first compound 0.003162 µM
  relative viability: 0.764
[23]; first compound 0.01 µM
  relative viability: 0.92
[23]; first compound 0.03162 µM
  relative viability: 0.594
[23]; first compound 0.1 µM
  relative viability: 0.682
